Assay results: patent publication US8952024B2, “Herbicidal pyrimidone derivatives” (E I du Pont de Nemours and Company, priority 2009, dated 2015)

Assays:
Assay type in all cases: in vivo
corn (Zea mays) = experiment: Test A pre-/postemergence plant response
How it was run: (§1)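 Both pre- and postemergence treatments are applied simultaneously, using chemicals formulated in a non-phytotoxic solvent mixture with surfactant. Postemergence plants are 2–10 cm high with one to two leaves. After approximately ten days in a greenhouse, injury is scored visually from 0 (none) to 100 (complete control) relative to untreated plants.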

[1] = system: giant foxtail (Setaria faberii); experiment: Test A pre-/postemergence plant response; settings: approx. ten days; for Plant response rating, Foxtail, Giant: 500 g ai/ha
How it was run: as §1

[2] = system: large crabgrass (Digitaria sanguinalis); experiment: Test A pre-/postemergence plant response
How it was run: as §1

[3] = system: morningglory (Ipomoea spp.); experiment: Test A pre-/postemergence plant response
How it was run: as §1

[4] = system: velvetleaf (Abutilon theophrasti); experiment: Test A pre-/postemergence plant response
How it was run: as §1

[5] = system: wheat (Triticum aestivum); experiment: Test A pre-/postemergence plant response
How it was run: as §1

[6] = system: galium (catchweed bedstraw, Galium aparine); experiment: Test B pre-/postemergence plant response; settings: Preemergence
How it was run: (§2)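 Each species received compound formulated in non-phytotoxic solvent with surfactant, either at planting into a loam and sand blend or as a foliar spray once plants reached 2 to 18 cm in peat-based medium. Plants stayed in the greenhouse 13 to 15 days before visual evaluation against controls, scored 0 (no effect) to 100 (complete control).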

[7] = system: nightshade (eastern black nightshade, Solanum ptycanthum); experiment: Test B pre-/postemergence plant response; settings: Preemergence
How it was run: as §2

[8] = system: sunflower (common oilseed sunflower, Helianthus annuus); experiment: Test B pre-/postemergence plant response; settings: Preemergence
How it was run: as §2

[9] = system: canarygrass (Phalaris minor); experiment: Test B postemergence plant response
How it was run: (§3)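 Plants grown in peat/vermiculite medium were sprayed postemergence at 2–18 cm height (1- to 4-leaf stage). After 13–15 days in the greenhouse, response was rated visually against untreated controls on a 0–100 scale (0 no effect, 100 complete control).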

[10] = system: chickweed (Stellaria media); experiment: Test B postemergence plant response
How it was run: as §3

[11] = system: windgrass (Apera spica-venti); experiment: Test B postemergence plant response
How it was run: as §3

[12] = system: winter barley (Hordeum vulgare); experiment: Test B postemergence plant response
How it was run: as §3

[13] = Postemergence, 125 g ai/ha, visual injury, 0 to 100 scale (0 no effect, 100 complete control), approx. ten days
[14] = Postemergence, 500 g ai/ha, 0 to 100 scale, 0 = no effect, 100 = complete control, approx. ten days
[15] = Preemergence, 125 g ai/ha, 0 to 100 scale, 0 = no effect, 100 = complete control
[16] = Preemergence, 500 g ai/ha, visual injury, 0 to 100 scale (0 no effect, 100 complete control), approx. ten days
[17] = 31 g ai/ha, scale 0 to 100 (0 no effect, 100 complete control)
[18] = 62 g ai/ha, scale 0 to 100, 0 no effect, 100 complete control
[19] = 125 g ai/ha, scale 0 to 100, 0 no effect, 100 complete control
[20] = 31 g ai/ha, postemergence, scale 0 to 100, 0 is no effect, 100 is complete control
[21] = 62 g ai/ha, postemergence, 0 is no effect, 100 is complete control, 13 to 15 days
[22] = Postemergence, 125 g ai/ha, visual rating after 13 to 15 days, scale 0 (no effect) to 100 (complete control)
[23] = Postemergence, 250 g ai/ha, scale 0 to 100 (0 no effect, 100 complete control)

CC(C)Cc1ncc(C(=O)C2=C(O)CCCC2=O)c(=O)n1-c1ccccc1 [Compound 68]
Corn plant response rating (corn (Zea mays); [13]): 0
Plant response rating, Corn (corn (Zea mays); [14]): 10
Plant response rating, Corn (corn (Zea mays); [15]): 0
Plant response rating, Corn (corn (Zea mays); [16]): 0
Foxtail, Giant plant response rating ([1]; Postemergence, 125 g ai/ha, visual injury, 0 to 100 scale (0 no effect, 100 complete control)): 50
Plant response rating, Foxtail, Giant ([1]; Postemergence, 0 to 100 scale, 0 = no effect, 100 = complete control): 70
Plant response rating, Foxtail, Giant ([1]; Preemergence, visual injury, 0 to 100 scale (0 no effect, 100 complete control)): 60
Crabgrass, Large plant response rating [2, 13]: 80
Plant response rating, Crabgrass, Large [2, 14]: 100
Plant response rating, Crabgrass, Large [2, 15]: 70
Plant response rating, Crabgrass, Large [2, 16]: 100
Morningglory plant response rating [3, 13]: 90
Plant response rating, Morningglory [3, 14]: 90
Plant response rating, Morningglory [3, 15]: 20
Plant response rating, Morningglory [3, 16]: 50
Velvetleaf plant response rating [4, 13]: 100
Plant response rating, Velvetleaf [4, 14]: 100
Plant response rating, Velvetleaf [4, 15]: 70
Plant response rating, Velvetleaf [4, 16]: 100
Wheat plant response rating [5, 13]: 0
Plant response rating, Wheat [5, 14]: 0
Plant response rating, Wheat [5, 15]: 0
Plant response rating, Wheat [5, 16]: 0
Plant response rating, Galium ([6]; 250 g ai/ha, 0 to 100 scale): 85
Plant response rating, Galium [6, 17]: 0
Plant response rating, Galium [6, 18]: 70
Plant response rating, Galium [6, 19]: 70
Plant response rating, Nightshade [7, 17]: 98
Plant response rating, Nightshade [7, 18]: 98
Plant response rating, Nightshade [7, 19]: 100
Plant response rating, Sunflower [8, 17]: 0
Plant response rating, Sunflower [8, 18]: 60
Plant response rating, Sunflower [8, 19]: 75
Plant response rating, Canarygrass [9, 20]: 0
Canarygrass plant response rating (0 to 100 scale) [9, 21]: 0
Plant response rating, Canarygrass [9, 22]: 35
Plant response rating, Canarygrass [9, 23]: 35
Plant response rating, Chickweed [10, 20]: 85
Chickweed plant response rating (0 to 100 scale) [10, 21]: 90
Plant response rating, Chickweed [10, 22]: 98
Plant response rating, Chickweed [10, 23]: 100
Plant response rating, Windgrass [11, 20]: 40
Windgrass plant response rating (0 to 100 scale) [11, 21]: 50
Plant response rating, Windgrass [11, 22]: 65
Plant response rating, Windgrass [11, 23]: 85
Plant response rating, Barley [12, 20]: 0
Barley plant response rating (0 to 100 scale) [12, 21]: 0
Plant response rating, Barley [12, 22]: 25
Plant response rating, Barley [12, 23]: 30
